In brackets after ≈: the same amount, converted by molar mass. Where a SMILES comes first, the peptide text is derived from it. Bridges are numbered along the chain shown (N, C = ends). [ ]: non-standard residue; d: D form. The star is where a group is joined. Octanoyl = CCCCCCCC(=O)*; Dab = NCC[C@H](N)C(=O)O
Key:
Escherichia coli [1] = assay: Antimicrobial activity against Escherichia coli; assay type: functional
Pseudomonas aeruginosa [2] = assay: Antimicrobial activity against Pseudomonas aeruginosa; assay type: functional, organism-based
Lipopolysaccharide (LPS) = assay: Displacement of dansyl-PMB from LPS by isothermal titration calorimetry
Salmonella enterica = assay: Antimicrobial activity against Salmonella enterica; assay type: functional
Mus musculus [3] = assay: Acute toxicity in iv dosed mouse; assay type: organism-based; settings: in vivo
Escherichia coli [4] = assay: Antimicrobial activity against PMB-susceptible Escherichia coli SC9251; assay type: functional
Escherichia coli [5] = assay: Antimicrobial activity against PMB-resistant Escherichia coli SC9253; assay type: functional
Mus musculus [6] = assay: Protective activity in sc dosed CF1 mouse; settings: in vivo
[7] = (§1) Toxicity in iv dosed CF1 mouse; assay type: organism-based; settings: CF1, mouse, in vivo
Klebsiella pneumoniae = assay: Antimicrobial activity against Klebsiella pneumoniae; assay type: functional
Staphylococcus aureus = assay: Antimicrobial activity against Staphylococcus aureus; assay type: functional
[8] = (§2) Toxicity in mouse; assay type: organism-based; settings: in vivo
Escherichia coli [9] = assay: Antimicrobial activity against Escherichia coli assessed as relative sensitizing activity; assay type: functional
Mus musculus [10] = species: Mus musculus; assay: as §2; assay type: organism-based; settings: in vivo
Mus musculus [11] = assay: as §1; assay type: organism-based; settings: mouse, in vivo
Pseudomonas aeruginosa [12] = test system: Pseudomonas aeruginosa

| MIC (Escherichia coli [1]) | MIC (Staphylococcus aureus) | Compound | MIC (Pseudomonas aeruginosa [2]) | IC50 (Lipopolysaccharide (LPS)) | MIC (Salmonella enterica) | LD50 (Mus musculus [3]) | other results |
| --- | --- | --- | --- | --- | --- | --- | --- |
|  |  | CC(C)CCCCCC(O)CC(=O)N[C@@H](CCN)C(=O)N[C@H]1CCNC(=O)[C@H](CC(C)C)NC(=O)[C@H](CCN)NC(=O)[C@H](CCN)NC(=O)[C@H](CC(C)C)NC(=O)[C@@H](Cc2ccccc2)NC(=O)[C@H](CCN)NC1=O (stereo partly specified) [OCTAPEPTIN A1] |  |  |  |  | MIC (Escherichia coli [4]): 1.7 µg/mL (≈ 1.61 µM); MIC (Escherichia coli [5]): 0.3 µg/mL (≈ 0.283 µM) |
| 0.5 µg/mL | ≥ 16 µg/mL | CCCCCCCCC(=O)N[C@H](C(=O)N[C@@H](CCN)C(=O)N[C@H]1CCNC(=O)[C@H]([C@@H](C)O)NC(=O)[C@H](CCN)NC(=O)[C@H](CCN)NC(=O)[C@H](CC(C)C)NC(=O)[C@@H](Cc2ccccc2)NC(=O)[C@H](CCN)NC1=O)[C@@H](C)O | 2 µg/mL |  |  |  |  |
|  |  | CC(C)C[C@@H]1NC(=O)[C@@H](Cc2ccccc2)NC(=O)[C@H](CCN)NC(=O)[C@@H](NC(=O)[C@H](CCN)NC(=O)[C@@H](N)[C@@H](C)O)CCNC(=O)[C@H]([C@@H](C)O)NC(=O)[C@H](CCN)NC(=O)[C@H](CCN)NC1=O (stereo in doubt; 193) [POLYMYXIN B NONAPEPTIDE] |  |  |  |  | LD50 [8]: 43 mg/kg; Activity (Escherichia coli [9]): 100%; IC50 (Lipopolysaccharide (LPS); read-out: IC50): 2.5 µM |
|  |  | POLYMYXIN B [listing 1 of 2 here] |  | 4 µM |  | 4.8 µM/g | LD50 (Mus musculus [10]): 9 mg/kg; LD50 (Mus musculus [11]): 9 mg/kg |
| 0.03 µg/mL | ≥ 16 µg/mL | CCCCCCCC(=O)N[C@H](C(=O)N[C@@H](CCN)C(=O)N[C@H]1CCNC(=O)[C@H]([C@@H](C)O)NC(=O)[C@H](CCN)NC(=O)[C@H](CCN)NC(=O)[C@H](CC(C)C)NC(=O)[C@@H](Cc2ccccc2)NC(=O)[C@H](CCN)NC1=O)[C@@H](C)O (stereo in doubt; 80) [Octanoyl Polymixin B nonapeptide] | 4 µg/mL |  |  |  |  |
| 1 µg/mL | ≥ 16 µg/mL | CCCCCCCCCC(=O)N[C@H](C(=O)N[C@@H](CCN)C(=O)N[C@H]1CCNC(=O)[C@H]([C@@H](C)O)NC(=O)[C@H](CCN)NC(=O)[C@H](CCN)NC(=O)[C@H](CC(C)C)NC(=O)[C@@H](Cc2ccccc2)NC(=O)[C@H](CCN)NC1=O)[C@@H](C)O [DECANOYL POLYMIXIN B NONAPEPTIDE] | 2 µg/mL |  |  |  |  |
| 1 µM |  | POLYMYXIN B [listing 2 of 2 here] |  |  | 1 µM |  | MIC (Pseudomonas aeruginosa [12]): 1 µM |

| Compound | MIC (Escherichia coli [1]) | MIC (Staphylococcus aureus) | MIC (Pseudomonas aeruginosa [2]) | IC50 (Lipopolysaccharide (LPS)) | MIC (Salmonella enterica) | LD50 (Mus musculus [3]) | other results |
| --- | --- | --- | --- | --- | --- | --- | --- |
| CC(C)C[C@@H]1NC(=O)[C@@H](Cc2ccccc2)NC(=O)[C@H](CCN)NC(=O)[C@@H](NC(=O)[C@H](CCN)NC(=O)[C@@H](NC(=O)[C@H](Cc2c[nH]c3ccccc23)NC(=O)O)[C@@H](C)O)CCNC(=O)[C@H]([C@@H](C)O)NC(=O)[C@H](CCN)NC(=O)[C@H](CCN)NC1=O [DESFA-[TRP1]POLYMYXIN B] | 8 µM |  | 8 µM | 20 µM | 8 µM (≈ 9.55 µg/mL) | 19 µM/g |  |
| CCCCCCCC(=O)N[C@@H](CCN)C(=O)N[C@H](C(=O)N[C@@H](CCN)C(=O)N[C@H]1CCNC(=O)[C@H]([C@@H](C)O)NC(=O)[C@H](CCNC(=O)[C@@H](N)CCCNC(=N)N)NC(=O)[C@H](CCN)NC(=O)[C@H](CC(C)C)NC(=O)[C@@H](Cc2ccccc2)NC(=O)[C@H](CCN)NC1=O)[C@@H](C)O (Octanoyl-[Dab]T[Dab][Dab][Dab][dF]L[Dab][Dab](Arg)T; lactam 4-C) | 0.16 µg/mL |  | 0.03 µg/mL |  |  |  | PD50 (Mus musculus [6]): 0.25 mg/kg; LD50 [7]: 15 mg/kg; MIC (Klebsiella pneumoniae): 2 µg/mL (≈ 1.49 µM) |
| CC(C)C[C@@H]1NC(=O)[C@@H](Cc2ccccc2)NC(=O)[C@H](CCN)NC(=O)[C@@H](NC(=O)[C@H](CCN)NC(=O)[C@@H](NC(=O)[C@H](CN)NC(=O)O)[C@@H](C)O)CCNC(=O)[C@H]([C@@H](C)O)NC(=O)[C@H](CCN)NC(=O)[C@H](CCN)NC1=O [DESFA-[DIAMINOPROPANOIC ACID1]POLYMYXIN B] | 8 µM |  | 1 µM | 14 µM | 16 µM (≈ 17.5 µg/mL) | 23.5 µM/g |  |
